This assay deals with T1, Kir4.1 (Homo sapiens, UniProt P78508).
T1 construct: expressed in transfected cells
T1 sequence (P78508 1-379): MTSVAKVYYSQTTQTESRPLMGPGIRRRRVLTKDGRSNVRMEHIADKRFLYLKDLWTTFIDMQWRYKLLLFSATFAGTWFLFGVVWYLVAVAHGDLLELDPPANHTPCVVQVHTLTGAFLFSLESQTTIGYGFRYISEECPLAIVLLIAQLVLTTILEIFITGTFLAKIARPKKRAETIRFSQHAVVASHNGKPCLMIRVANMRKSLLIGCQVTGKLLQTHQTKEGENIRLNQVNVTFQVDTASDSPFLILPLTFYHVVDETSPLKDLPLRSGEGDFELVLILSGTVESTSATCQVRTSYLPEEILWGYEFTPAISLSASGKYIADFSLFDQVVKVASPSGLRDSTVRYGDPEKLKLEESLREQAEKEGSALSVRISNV
Put plainly: Tl+ flux selectivity assay, Kir4.1. Type of assay: cell-based. Conditions: n = 2 independent experiments in triplicate, read-out: Inhibition of Tl+ flux (IC50). The method, then:
Tl^+ flux assays were performed essentially as described previously, [18], [19]. Briefly, stably transfected T-Rex-HEK-293 cells expressing AeKir1 channels were cultured overnight in 384-well plates (20,000 cells/20 µL/well black-walled, clear-bottomed BD PureCoat amine-coated plates (BD, Bedford, MA) with a plating media containing DMEM, 10% dialyzed FBS and 1 µg/mL tetracycline. The next day, the cell culture medium was replaced with a dye-loading solution containing assay buffer (Hanks Balanced Salt Solution with 20 mM HEPES, pH 7.3), 0.01% (w/v) Pluronic F-127 (Life Technologies, Carlsbad, CA), and 1.2 µM of the thallium-sensitive dye Thallos-AM (TEFlabs, Austin, TX). Following 1 hr incubation at room temperature, the dye-loading solution was washed from the plates and replaced with 20 µL/well of assay buffer. […] Tl^+ flux data were analyzed as previously described, [21], [22] using a combination of Excel (Microsoft Corp, Redmond, WA) with XLfit add-in (IDBS, Guildford, Surrey, UK) and OriginPro (OriginLab, Northampton, MA) software. […] The slope of the fluorescence increase beginning 5 s after Tl^+ addition and ending 15 s after Tl^+ addition was calculated.

Take `CCC(=O)N1c2ccc(S(=O)(=O)Nc3cccc(OC)c3)cc2CC1C` (stereo not shown) [VU625, N-(3-methoxyphenyl)-2-methyl-1-propionylindoline-5-sulfonamide]: the IC50 was more than 30 µM.

In general, IC50 refers to the concentration that gives 50% inhibition.
